The values below come from DBAASP.

In brackets after ≈: the same amount, converted by molar mass. Several values for one entry are separate records, joined by “and”; a condition that tells them apart may be missing. Equal entries are not always repeated.

Some test systems named below: Pseudomonas aeruginosa; Escherichia coli; Staphylococcus aureus.
Holding throughout (experiment): ≥ marks a high value that may be exact or a test limit, other limits are often not marked, values filed in µg/mL are converted to µM
Test [1] has as its system Pseudomonas aeruginosa ATCC 27853.
Test [2] deals with Staphylococcus aureus ATCC 29213.
Test [3] concerns Escherichia coli ATCC 25922.
The subject of test [4] is Staphylococcus aureus ATCC 25923.

`CC[C@H](C)[C@H](N)C(=O)N[C@@H](CC(N)=O)C(=O)N[C@@H](Cc1c[nH]c2ccccc12)C(=O)N[C@@H](CCCCN)C(=O)N[C@@H](CCCCN)C(=O)N[C@H](C(=O)N[C@@H](C)C(=O)N[C@@H](CO)C(=O)N[C@H](C(=O)NCC(=O)N[C@@H](CCCCN)C(=O)N[C@@H](CCC(=O)O)C(=O)N[C@H](C(=O)N[C@@H](CC(C)C)C(=O)N[C@@H](CCCCN)C(=O)N[C@@H](C)C(=O)N[C@@H](CC(C)C)C(N)=O)C(C)C)[C@@H](C)CC)[C@@H](C)CC` [INWKKIASIGKEVLKAL]: the MIC was 86.6 µM (≈ 165 µg/mL) in the test on Pseudomonas aeruginosa; 7.3 µM and 5 µM and 2.5 µM in the test with Escherichia coli; 25.8 µM (≈ 49.3 µg/mL) against Staphylococcus aureus.
On to `NCC(=O)N[C@@H](CCCN=C(N)N)C(=O)N[C@@H](CCCN=C(N)N)C(=O)N1CCC[C@H]1C(=O)N[C@@H](CCCN=C(N)N)C(=O)N1CCC[C@H]1C(=O)N[C@@H](CCCN=C(N)N)C(=O)N1CCC[C@H]1C(=O)N[C@@H](CCCN=C(N)N)C(=O)N1CCC[C@H]1C(=O)N[C@@H](Cc1ccccc1)C(=O)N[C@@H](Cc1ccccc1)C(=O)N[C@@H](Cc1ccccc1)C(=O)N[C@@H](Cc1ccccc1)C(=O)O` [GRRPRPRPRPFFFF], for which the minimum inhibitory concentration (MIC) in test [1] came to 80 µM (≈ 147 µg/mL); in test [2] it was 40 µM (≈ 73.3 µg/mL); in test [3], 160 µM (≈ 293 µg/mL).
As for `CC[C@H](C)[C@H](NC(=O)[C@H](CCCCN)NC(=O)[C@H](CCCCN)NC(=O)[C@@H](N)CCC(N)=O)C(=O)N[C@@H](CCCN=C(N)N)C(=O)N[C@H](C(=O)N[C@@H](CCCN=C(N)N)C(=O)N[C@@H](CC(C)C)C(=O)N[C@@H](C)C(=O)N[C@@H](C)C(=O)O)C(C)C` [QKKIRVRLAA], the MIC in test [1] is 13.5 µM (≈ 16 µg/mL); in test [2], > 54.1 µM; in test [3], 13.5 µM (≈ 16 µg/mL).
Take `CC[C@H](C)[C@H](NC(=O)[C@H](CCCCN)NC(=O)[C@H](C)NC(=O)CNC(=O)[C@@H](NC(=O)[C@H](CCCCN)NC(=O)[C@@H](NC(=O)[C@H](CCCCN)NC(=O)[C@H](C)NC(=O)CNC(=O)[C@H](Cc1c[nH]c2ccccc12)NC(=O)[C@H](CCCCN)NC(=O)[C@@H](NC(=O)[C@H](CCCCN)NC(=O)[C@H](C)NC(=O)CNC(=O)[C@@H](NC(=O)[C@@H](N)CCCCN)[C@@H](C)CC)[C@@H](C)CC)[C@@H](C)CC)[C@@H](C)CC)C(N)=O` [KIGAKIKWGAKIKIGAKI]: the MIC in the test with Pseudomonas aeruginosa, with Escherichia coli and against Staphylococcus aureus was 4.16 µM (≈ 8 µg/mL) in each case.
For `CC[C@H](C)[C@H](NC(=O)[C@H](C)NC(=O)CNC(=O)[C@H](CCCCN)NC(=O)[C@@H](NC(=O)[C@H](CCCCN)NC(=O)[C@@H](NC(=O)[C@H](C)NC(=O)CNC(=O)[C@H](CCCCN)NC(=O)[C@H](Cc1c[nH]c2ccccc12)NC(=O)[C@H](CCCCN)NC(=O)[C@@H](NC(=O)[C@H](C)NC(=O)CNC(=O)[C@H](CCCCN)NC(=O)[C@@H](NC(=O)[C@@H](N)CCCCN)[C@@H](C)CC)[C@@H](C)CC)[C@@H](C)CC)[C@@H](C)CC)C(N)=O` [KIKGAIKWKGAIKIKGAI], the MIC came out at 8.32 µM (≈ 16 µg/mL) against Pseudomonas aeruginosa, 4.16 µM (≈ 8 µg/mL) against Escherichia coli and 8.32 µM (≈ 16 µg/mL) in the test on Staphylococcus aureus.
For the compound `CC[C@H](C)[C@H](NC(=O)[C@H](CCSC)NC(=O)[C@H](C)NC(=O)[C@@H]1CCCN1C(=O)[C@@H](NC(=O)[C@@H](NC(=O)[C@H](CCCCN)NC(=O)[C@@H](NC(=O)[C@H](CC(C)C)NC(=O)CNC(=O)CNC(=O)[C@@H](N)CC(C)C)[C@@H](C)CC)[C@@H](C)CC)C(C)C)C(=O)N[C@H]1CSSC[C@@H](C(=O)O)NC(=O)[C@H](CCCCN)NC(=O)[C@H](CCCCN)NC(=O)[C@H]([C@@H](C)O)NC(=O)[C@H](C(C)C)NC(=O)[C@H](C)NC1=O` [LGGLIKIVPAMICAVTKKC], the values for the MIC in test [1], in test [2] and in test [3] were > 131 µM, 131 µM (≈ 256 µg/mL) and 131 µM (≈ 256 µg/mL), respectively.
In the case of `CC[C@H](C)[C@H](NC(=O)[C@@H]1CCCN1C(=O)[C@H](CC(C)C)NC(=O)[C@@H](N)Cc1ccccc1)C(=O)N[C@@H](C)C(=O)N[C@@H](CO)C(=O)N[C@@H](CC(C)C)C(=O)N[C@@H](CC(C)C)C(=O)NCC(=O)N[C@@H](CCCCN)C(=O)N[C@@H](Cc1ccc(O)cc1)C(=O)N[C@@H](CC(C)C)C(=O)O` [FLPIASLLGKYL], the MIC against Staphylococcus aureus was > 200 µM.
In the case of `CC(C)C[C@H](NC(=O)[C@H](Cc1ccccc1)NC(=O)[C@@H]1CCCN1C(=O)[C@H](Cc1c[nH]c2ccccc12)NC(=O)[C@H](Cc1c[nH]c2ccccc12)NC(=O)[C@H](Cc1c[nH]c2ccccc12)NC(=O)[C@@H]1CCCN1C(=O)[C@H](Cc1ccccc1)NC(=O)[C@H](CCCCN)NC(=O)[C@H](CCCCN)NC(=O)[C@@H](N)C(C)C)C(=O)N[C@@H](CCCCN)C(=O)N[C@@H](CCCCN)C(N)=O` [VKKFPWWWPFLKK], the MIC in the test on Escherichia coli stood at 11.2 µM (≈ 20 µg/mL); in test [3] it was 16 µM (≈ 28.6 µg/mL); in the test with Staphylococcus aureus it was 5.59 µM (≈ 9.99 µg/mL).
As for `CC[C@H](C)[C@H](NC(=O)[C@H](CC(C)C)NC(=O)[C@@H](NC(=O)[C@H](CC(C)C)NC(=O)[C@H](CO)NC(=O)[C@H](CCCCN)NC(=O)[C@@H](NC(=O)[C@H](CC(C)C)NC(=O)[C@H](CCCCN)NC(=O)[C@H](CC(C)C)NC(=O)[C@H](CO)NC(=O)[C@H](CCCN=C(N)N)NC(=O)[C@H](CCCCN)NC(=O)[C@@H](NC(=O)[C@H](Cc1ccccc1)NC(=O)[C@@H](N)CO)[C@@H](C)CC)[C@@H](C)CC)C(C)C)C(=O)N[C@@H](CCCCN)C(=O)O` [SFIKRSLKLIKSLVLIK], in the test with Staphylococcus aureus, the MIC worked out at 4 µM (≈ 7.95 µg/mL).
As for `CC[C@H](C)[C@H](NC(=O)CN)C(=O)NCC(=O)N[C@@H](C)C(=O)N[C@H](C(=O)N[C@@H](CC(C)C)C(=O)N[C@@H](CCCCN)C(=O)N[C@H](C(=O)N[C@@H](CC(C)C)C(=O)N[C@@H](C)C(=O)N[C@@H](CC(C)C)C(=O)N[C@H](C(=O)N[C@@H](CO)C(=O)N[C@@H](Cc1c[nH]c2ccccc12)C(=O)N[C@H](C(=O)N[C@@H](CCCCN)C(=O)N[C@@H](CCCN=C(N)N)C(=O)N[C@@H](CCCCN)C(=O)N[C@@H](CCCN=C(N)N)C(N)=O)[C@@H](C)CC)[C@@H](C)CC)C(C)C)C(C)C` [GIGAVLKVLALISWIKRKR], the minimal inhibitory concentration (MIC) in test [1] was 11.2 µM (≈ 23.9 µg/mL); with Escherichia coli, 11.2 µM (≈ 23.9 µg/mL); in test [4], 5.6 µM (≈ 11.9 µg/mL).
`CC(C)[C@H](NC(=O)[C@H](Cc1c[nH]c2ccccc12)NC(=O)[C@H](C)NC(=O)[C@@H](N)CCCN=C(N)N)C(=O)N[C@@H](C)C(=O)N[C@@H](Cc1c[nH]c2ccccc12)C(=O)N[C@@H](CCCN=C(N)N)C(=O)N[C@@H](CC(N)=O)C(=O)N[C@@H](CCCN=C(N)N)C(N)=O` [RAWVAWRNR]: the MIC in test [2] came to 206 µM (≈ 250 µg/mL); in test [3], 412 µM (≈ 500 µg/mL).
`CC[C@H](C)[C@H](NC(=O)[C@H](Cc1ccccc1)NC(=O)[C@H](CO)NC(=O)[C@H](CCCCN)NC(=O)[C@H](Cc1c[nH]c2ccccc12)NC(=O)[C@@H](N)CCCCN)C(=O)N[C@@H](CCCCN)C(=O)N[C@@H](CCCCN)C(=O)N[C@@H](CC(C)C)C(=O)N[C@@H](C)C(=O)N[C@@H](CO)C(=O)N[C@@H](CCCCN)C(=O)N[C@@H](Cc1ccccc1)C(=O)N[C@@H](CC(C)C)C(=O)N[C@@H](Cc1cnc[nH]1)C(=O)N[C@@H](CO)C(=O)N[C@@H](C)C(=O)N[C@@H](CCCCN)C(=O)N[C@@H](CCCCN)C(=O)N[C@@H](Cc1ccccc1)C(N)=O` [KWKSFIKKLASKFLHSAKKF] had an MIC with Pseudomonas aeruginosa of 5.16 µM (≈ 12.5 µg/mL).
The same measure, in the same setting: then `CC[C@H](C)[C@H](NC(=O)[C@H](Cc1ccccc1)NC(=O)[C@H](CO)NC(=O)[C@H](CCCCN)NC(=O)[C@H](Cc1c[nH]c2ccccc12)NC(=O)[C@@H](N)CCCCN)C(=O)N[C@@H](CCCCN)C(=O)N[C@@H](CCCCN)C(=O)N[C@@H](CC(C)C)C(=O)N[C@H](C(=O)N[C@@H](CO)C(=O)N[C@@H](CCCCN)C(=O)N[C@@H](Cc1ccccc1)C(=O)N[C@@H](CC(C)C)C(=O)N[C@@H](Cc1cnc[nH]1)C(=O)N[C@@H](CO)C(=O)N[C@@H](C)C(=O)N[C@@H](CCCCN)C(=O)N[C@@H](CCCCN)C(=O)N[C@@H](CC(N)=O)C(N)=O)[C@@H](C)O` [KWKSFIKKLTSKFLHSAKKN], with 2.58 µM (≈ 6.25 µg/mL).
With `CC[C@H](C)[C@H](NC(=O)[C@H](CCCCN)NC(=O)[C@H](CCCCN)NC(=O)[C@@H](N)CCC(N)=O)C(=O)N[C@@H](CCCN=C(N)N)C(=O)N[C@H](C(=O)N[C@@H](CCCN=C(N)N)C(=O)N[C@@H](C)C(=O)N[C@@H](CO)C(=O)N[C@@H](C)C(=O)O)C(C)C` [QKKIRVRASA], the MIC in test [1], in test [2] and in test [3] was > 55.3 µM in each case.
On to `CC[C@H](C)[C@H](NC(=O)[C@H](CCCN=C(N)N)NC(=O)[C@H](CCC(N)=O)NC(=O)[C@@H](NC(=O)CNC(=O)[C@H](CCCN=C(N)N)NC(=O)[C@H](CCCCN)NC(=O)[C@@H](N)Cc1ccccc1)C(C)C)C(=O)N[C@@H](CCCCN)C(=O)N[C@@H](CC(=O)O)C(=O)N[C@@H](Cc1ccccc1)C(=O)N[C@@H](CC(C)C)C(=O)N[C@@H](CCCN=C(N)N)C(=O)O` [FKRGVQRIKDFLR], for which the minimal inhibitory concentration (MIC) in test [2] was > 40 µM; in test [3] it was 10 µM (≈ 16.6 µg/mL).
With `CC[C@H](C)[C@H](NC(=O)[C@H](Cc1c[nH]c2ccccc12)NC(=O)[C@H](CCCN=C(N)N)NC(=O)[C@H](CCC(N)=O)NC(=O)[C@@H](NC(=O)[C@H](Cc1c[nH]c2ccccc12)NC(=O)[C@H](CCCN=C(N)N)NC(=O)[C@@H](N)CCCN=C(N)N)C(C)C)C(=O)N[C@@H](CCCN=C(N)N)C(=O)N[C@@H](CCCN=C(N)N)C(=O)N[C@@H](Cc1c[nH]c2ccccc12)C(=O)N[C@@H](CCCN=C(N)N)C(=O)N[C@@H](CCCCN)C(=O)N[C@@H](Cc1c[nH]c2ccccc12)C(=O)N[C@H](C(=O)O)C(C)C` [RRWVQRWIRRWRKWV], the minimal inhibitory concentration (MIC) in the test on Pseudomonas aeruginosa and in the test with Staphylococcus aureus was 20 µM (≈ 45.4 µg/mL) throughout.

Usually MIC stands for the smallest concentration in the dilution series that meets the test's criterion for growth inhibition.
